Experimental data published in the NIST ThermoML archive (doi:10.1016/j.fluid.2016.09.021).
Numbers after ± are expanded uncertainties.

Settings: Liquid, Vibrating tube method

c1ccccc1 [benzene]
mass density [kg/m3]
Settings | 293 K | 313 K | 333 K | 353 K | 373 K | 393 K | 413 K | 433 K | 448 K | 468 K
2100 kPa | 877.4 ± 2 | 857 ± 2.1 | 835.1 ± 2 | 813.1 ± 2.1 | 790.7 ± 2.1 | 767.6 ± 2.2 | 743 ± 2.3 | 716.7 ± 2.4 | 696 ± 2.5 | 666.9 ± 2.5
3100 kPa | 878.1 ± 2 | 857.8 ± 2 | 836 ± 2 | 814.2 ± 2.1 | 792.1 ± 2.1 | 769.4 ± 2.1 | 745.1 ± 2.2 | 719.4 ± 2.3 | 699.2 ± 2.4 | 670.7 ± 2.5
4100 kPa | 878.8 ± 2 | 858.7 ± 2 | 837 ± 2.1 | 815.4 ± 2.1 | 793.4 ± 2.1 | 770.9 ± 2.1 | 747 ± 2.2 | 721.8 ± 2.2 | 702.1 ± 2.3 | 674.3 ± 2.5
5000 kPa | 879.6 ± 2 | 859.6 ± 2 | 838 ± 2.1 | 816.5 ± 2.1 | 794.7 ± 2.1 | 772.5 ± 2.1 | 748.8 ± 2.1 | 724 ± 2.2 | 704.8 ± 2.3 | 677.8 ± 2.5
10100 kPa | 883.4 ± 2 | 863.9 ± 2 | 842.7 ± 2 | 822.3 ± 2.1 | 801.4 ± 2.1 | 780 ± 2.1 | 758 ± 2.1 | 735.4 ± 2.2 | 717.8 ± 2.2 | 693.2 ± 2.3
20000 kPa | 890.4 ± 2 | 871.5 ± 2 | 851.8 ± 2 | 832.3 ± 2.1 | 812.9 ± 2.1 | 793 ± 2.1 | 773.2 ± 2.1 | 753 ± 2.1 | 738 ± 2.2 | 717 ± 2.2
30000 kPa | 896.9 ± 2 | 878.7 ± 2 | 859.4 ± 2 | 841.2 ± 2 | 823.1 ± 2.1 | 804.5 ± 2.1 | 786.2 ± 2.1 | 767.8 ± 2.1 | 754.2 ± 2.1 | 735.1 ± 2.2
40000 kPa | 902.9 ± 2 | 885.2 ± 2 | 867 ± 2 | 849.5 ± 2.1 | 832.3 ± 2.1 | 814.6 ± 2.1 | 797.5 ± 2.1 | 780.3 ± 2.1 | 767.8 ± 2.1 | 750.3 ± 2.1
50000 kPa | 908.6 ± 2 | 891.6 ± 2 | 874.2 ± 2 | 857 ± 2.1 | 840.7 ± 2.1 | 824 ± 2.1 | 807.8 ± 2.1 | 791.6 ± 2.1 | 779.8 ± 2.1 | 763.6 ± 2.1
60000 kPa | 914 ± 2 | 897.5 ± 2 | 880.8 ± 2 | 864.3 ± 2.1 | 848.2 ± 2.1 | 832.6 ± 2.1 | 817.2 ± 2.1 | 801.7 ± 2.1 | 790.6 ± 2.1 | 775.5 ± 2.1
70000 kPa | 919.6 ± 2 | 902.9 ± 2 | 886.7 ± 2 | 871.2 ± 2.1 | 855.7 ± 2.1 | 841 ± 2.1 | 825.8 ± 2.1 | 811 ± 2.1 | 800.3 ± 2.1 | 786.1 ± 2.1

CCCCCCCCCCCC [dodecane]
mass density [kg/m3]
Settings | 293 K | 313 K | 333 K | 353 K | 373 K | 393 K | 413 K | 433 K | 448 K | 468 K
2100 kPa | 752.3 ± 2 | 737.7 ± 2 | 722.8 ± 2 | 708.1 ± 2.1 | 693.2 ± 2.1 | 678.1 ± 2.1 | 662.8 ± 2.1 | 646.8 ± 2.1 | 634.6 ± 2.2 | 617.8 ± 2.2
3100 kPa | 752.9 ± 2 | 738.5 ± 2 | 723.6 ± 2 | 709 ± 2.1 | 694.3 ± 2.1 | 679.2 ± 2.1 | 664.2 ± 2.1 | 648.5 ± 2.1 | 636.7 ± 2.1 | 619.9 ± 2.2
4100 kPa | 753.6 ± 2 | 739.2 ± 2 | 724.5 ± 2.1 | 710 ± 2.1 | 695.3 ± 2.1 | 680.4 ± 2.1 | 665.6 ± 2.1 | 650 ± 2.1 | 638.2 ± 2.1 | 622 ± 2.2
5000 kPa | 754.2 ± 2 | 739.9 ± 2 | 725.3 ± 2.1 | 710.9 ± 2.1 | 696.3 ± 2.1 | 681.6 ± 2.1 | 666.9 ± 2.1 | 651.6 ± 2.1 | 640 ± 2.2 | 624.1 ± 2.2
10100 kPa | 757.5 ± 2 | 743.4 ± 2 | 729.4 ± 2 | 715.6 ± 2.1 | 701.5 ± 2.1 | 687.5 ± 2.1 | 673.7 ± 2.1 | 659.5 ± 2.1 | 648.5 ± 2.1 | 634.1 ± 2.1
20000 kPa | 763.5 ± 2.1 | 750.1 ± 2.1 | 736.6 ± 2.1 | 723.9 ± 2.1 | 710.8 ± 2.1 | 697.8 ± 2.1 | 685.1 ± 2.1 | 672 ± 2.1 | 662.4 ± 2.1 | 649.5 ± 2.1
30000 kPa | 769 ± 2.1 | 756.3 ± 2.1 | 743.4 ± 2.1 | 731.3 ± 2.1 | 718.7 ± 2.1 | 706.6 ± 2.1 | 694.9 ± 2.1 | 682.8 ± 2.1 | 674 ± 2.1 | 661.8 ± 2.1
40000 kPa | 774.3 ± 2.1 | 761.8 ± 2.1 | 749.6 ± 2.1 | 737.7 ± 2.1 | 726 ± 2.1 | 714.7 ± 2.1 | 703.6 ± 2.1 | 692.1 ± 2.1 | 684 ± 2.1 | 672.8 ± 2.2
50000 kPa | 779 ± 2.1 | 767.1 ± 2.1 | 755.3 ± 2.1 | 744.1 ± 2.1 | 733.1 ± 2.1 | 722.2 ± 2.1 | 711.4 ± 2.2 | 700.6 ± 2.2 | 692.9 ± 2.2 | 682.6 ± 2.2
60000 kPa | 783.8 ± 2.1 | 772.1 ± 2.1 | 760.8 ± 2.1 | 750.1 ± 2.1 | 739.4 ± 2.2 | 728.7 ± 2.2 | 718.7 ± 2.2 | 708.3 ± 2.2 | 701 ± 2.2 | 691 ± 2.2
69900 kPa | 788 ± 2.1 | 777 ± 2.2 | 766 ± 2.2 | 755.6 ± 2.2 | 745.2 ± 2.2 | 735.1 ± 2.2 | 725.4 ± 2.2 | 715.6 ± 2.2 | 708.3 ± 2.2 | 698.9 ± 2.3
79900 kPa | 792.5 ± 2.2 | 781.6 ± 2.2 | 770.9 ± 2.2 | 760.7 ± 2.2 | 750.7 ± 2.2 | 741.1 ± 2.2 | 731.7 ± 2.2 | 722.1 ± 2.3 | 715.3 ± 2.3 | 706.3 ± 2.3
89900 kPa | 796.7 ± 2.2 | 786.1 ± 2.2 | 775.7 ± 2.2 | 765.7 ± 2.2 | 756 ± 2.2 | 746.8 ± 2.3 | 737.3 ± 2.3 | 728.3 ± 2.3 | 721.9 ± 2.3 | 712.9 ± 2.3
99900 kPa | 800.8 ± 2.2 | 790.4 ± 2.2 | 780.1 ± 2.2 | 770.5 ± 2.3 | 761 ± 2.3 | 752.2 ± 2.3 | 743.2 ± 2.3 | 734.3 ± 2.3 | 727.9 ± 2.3 | 719.2 ± 2.4
109900 kPa | 804.8 ± 2.2 | 794.6 ± 2.2 | 784.6 ± 2.3 | 775.1 ± 2.3 | 765.9 ± 2.3 | 757.2 ± 2.3 | 748.5 ± 2.3 | 739.8 ± 2.4 | 733.5 ± 2.4 | 725.1 ± 2.4
119900 kPa | 808.7 ± 2.3 | 798.7 ± 2.3 | 788.8 ± 2.3 | 779.6 ± 2.3 | 770.6 ± 2.3 | 762 ± 2.4 | 753.7 ± 2.4 | 745.1 ± 2.4 | 739 ± 2.4 | 731 ± 2.4
129900 kPa | 812.4 ± 2.3 | 802.7 ± 2.3 | 793.2 ± 2.3 | 784 ± 2.3 | 775.1 ± 2.4 | 766.8 ± 2.4 | 758.5 ± 2.4 | 750.3 ± 2.4 | 744.2 ± 2.5 | 736.3 ± 2.5
134900 kPa | 814.4 ± 2.3 | 804.6 ± 2.3 | 795.1 ± 2.3 | 786 ± 2.4 | 777.4 ± 2.4 | 769 ± 2.4 | 760.9 ± 2.4 | 752.7 ± 2.5 | 746.7 ± 2.5 | 738.9 ± 2.5
137400 kPa | 815.2 ± 2.3 | 805.4 ± 2.3 | 796 ± 2.3 | 787 ± 2.4 | 778.5 ± 2.4 | 770.2 ± 2.4 | 762 ± 2.4 | 753.9 ± 2.5 | 747.9 ± 2.5 | 740.2 ± 2.5
